Patent publication US20260345553A1, “COMPOSITION FOR TREATING CANCER COMPRISING HISTONE DEACETYLASE INHIBITOR, AND ANTICANCER ADJUVANT FOR CANCER IMMUNOTHERAPY” (SAMSUNG LIFE PUBLIC WELFARE FOUNDATION, priority 2022, published 2026)

Legend:
PD-L1 [1] = assay: PD-L1 expression (RNA and protein) after HDAC inhibitor treatment in colorectal cell lines; assay type: cell-based, human, mouse; settings: for PD-L1 expression in MSS compared with MSI colorectal cell lines: MSS compared with MSI colorectal cell lines (summary statement); for PD-L1 expression upon HDAC inhibitor treatment, MSS cell lines: SW620, LS513, and CT26, IC50 and ½ IC50, 48 hours, HDAC3 inhibitor compared with HDAC6 and HDAC8 (FIG. 2), HDAC8 inhibitor concentration-dependent (FIG. 6)
Method: (§1) The HDAC3 inhibitor experiment was conducted by harvesting cells 48 hours after the treatment at each inhibitor concentration and obtaining RNA and proteins. RGFP966 (S7229) purchased from SellekChem was used as an HDAC3 inhibitor. Specifically, SW620, LS513, DLD-1, CT26, and MC38 were individually cultured, and the experiments were conducted using the IC50 and ½ IC50 concentration on the basis of the previously determined IC50 concentration. RNA and protein samples were collected 48 hours after RGFP966 treatment. The RNA samples were isolated using the TRIzol, isopropanol, and chloroform, and the protein samples were collected by lysis with a lysis buffer (Roche, 4719956001). RNA was synthesized into cDNA using a cDNA synthesis kit (Bioneer, K-2044-B), and real-time PCR was performed using a method according to SYBR (Applied Biosystems, 4367659). Proteins were quantified using the Bradford assay (Bio-Rad, 50000006), and subjected to loading, transfer, blocking (3% skim milk; BD, 232100), primary antibody (24 h, 4 °C), and secondary antibody sequentially, thereby developing PD-L1.
The HDAC6 inhibitor experiment was conducted by the same method as in the HDAC3 inhibitor experiment of Experimental Example 3, and Nexturastat A HDAC6 selective inhibitor purchased from SellekChem was used as an HDAC6 inhibitor.
The HDAC8 inhibitor experiment was conducted by the same method as in the HDAC3 inhibitor experiment of Experimental Example 3, and PCI-34051 HDAC8 selective inhibitor purchased from SellekChem was used as an HDAC8 inhibitor.
The HDAC6 and HDAC8 inhibitor experiment was conducted by harvesting cells 48 hours after the treatment and then obtaining RNA and proteins.

PD-L1 [2] = assay: PD-L1 expression by HDAC6 inhibitor, MSI versus MSS colorectal cancer cell lines; assay type: cell-based; settings: IC50 and half-IC50; MSI DLD-1, HCT116, MC38; MSS SW620, HT29, CT26; FIG. 15
Method: (§2) The IC50 values of the HDAC6 inhibitor (Nexturastat A) in three MSI colorectal cancer cell lines (DLD-1, HCT116, and MC38) and three MSS colorectal cancer cell lines (SW620, HT29, and CT26) were determined. The cells were then treated with the inhibitor at the IC50 and half-IC50 concentrations (concentration corresponding to ½ of the IC50 value), and the expression levels of the immune checkpoint proteins PD-L1 and B7H3 were measured.

B7H3 = B7H3 expression by HDAC6 inhibitor, MSI versus MSS colorectal cancer cell lines; assay type: cell-based; settings: IC50 and half-IC50; MSI DLD-1, HCT116, MC38; MSS SW620, HT29, CT26; FIG. 15
Method: as §2

[3] = Body weight of mice, HDAC6 inhibitor animal experiment; assay type: in vivo, BALB/C mice; settings: HDAC6i 20 mpk i.p. daily; FIG. 9D
Method: The animal experiment using an HDAC6 inhibitor was conducted using a total of three groups, a control group (control), an HDAC6i (Next A) group, and an HDAC6i (Next A)+anti-PD-L1 group. Nexturastat A (SellekChem) was used as HDAC6i (HDAC6 inhibitor), and #BE0101 (Bioxcell) was used as an anti-PD-L1 antibody. CT26 (1×10^6) cells and BALB/C mice were used. Three mice for the control group, three mice for the HDAC6i group, and four mice for the HDAC6i+anti-PD-L1 group were used.
• HDAC6i group: HDAC6i 20 mpk (mg/kg) intraperitoneally injected daily • HDAC6i+anti-PD-L1 group: HDAC6i 20 mpk intraperitoneally injected every day and anti-PD-L1 antibody 10 mpk intraperitoneally injected three times per week.

CT26 tumor = assay: CD8 T cell-dependent CT26 tumor growth suppression with anti-CD8a pre-treatment; assay type: in vivo, BALB/C mice; settings: concluded from anti-CD8a blocking
Method: To examine the hypothesis that an HDAC6 inhibitor suppresses CT26 tumor growth in a CD8 T cell-dependent manner, an experiment on the combination with anti-CD8a antibody was further conducted by pre-treatment with anti-CD8a antibody, which binds to CD8 T cells. The experiment was conducted by intraperitoneally administering an anti-CD8a antibody to animals from 3 days before tumor cell injection at 3-day intervals to inhibit CD8 T cells and administering an HDAC6 inhibitor and an anti-PD-L1 antibody.
Specifically, the experiment was conducted on a total of four groups: a control group, an anti-CD8a group, an HDAC6i (Next A)+anti-PD-L1 group, and an HDAC6i (Next A)+anti-PD-L1+anti-CD8a group. CT26 cells (1×10^6) for a cell line, Nexturastat A (SellekChem) as HDAC6i (HDAC6 inhibitor), #BE0101 (Bioxcell) as an anti-PD-L1 antibody, and #BE017 (Bioxcell) as an anti-CD8a antibody were used. BALB/C mice were used. In addition, 6 mice for the control group, 6 mice for the anti-CD8a group, 6 mice for the HDAC6i (Next A)+anti-PD-L1 group, and 8 mice for the HDAC6i (Next A)+anti-PD-L1+anti-CD8a group were used. […]

PD-L1 [4] = assay: PD-L1 expression after HDAC3 inhibitor treatment in mouse cells; assay type: cell-based; settings: IC50 and ½ IC50, 48 hours, FIG. 2
Method: as §1

SMILES	PD-L1 expression at the RNA and protein levels upon HDAC6 inhibitor treatment (PD-L1 [1]; MSS cell lines SW620, LS513, HT29, and CT26, depending on the concentration, 48 hours, FIG. 4)	PD-L1 expression in MSS compared with MSI colorectal cell lines (PD-L1 [1])	PD-L1 expression in MSS compared with MSI cell line (PD-L1 [2])	B7H3 expression in MSS compared with MSI cell line (B7H3)	body weight of the animals [3]	CD8 T cell dependence of CT26 tumor growth suppression (CT26 tumor)	PD-L1 expression upon HDAC inhibitor treatment, MSS cell lines (PD-L1 [1])	PD-L1 expression upon HDAC3 inhibitor treatment, mouse cells (PD-L1 [4])
CCCCN(Cc1ccc(C(=O)NO)cc1)C(=O)Nc1ccccc1 [Nexturastat A]	increase in PD-L1 expression at the RNA and protein levels	further up-regulated	distinct increase tendencies	distinct increase tendencies	not reduced	suppressed CT26 tumor growth in a CD8 T cell-dependent manner		
COc1ccc(Cn2ccc3ccc(C(=O)NO)cc32)cc1 [PCI-34051]		further up-regulated					increase in PD-L1 expression at the RNA and protein levels	
Nc1cc(F)ccc1NC(=O)/C=C/c1cnn(C/C=C/c2ccccc2)c1 [RGFP966]							small increases	decrease tendency
